Results: patent US20110280940A1, “Di-Vanilloyl And Tri-Vanilloyl Derivatives For Use In Anti-Cancer Therapy” (priority 2008, published 2011)

Columns and labels:
Type in all cases: biochemical
WEE1 kinase = biological target: T1, WEE1 kinase (Homo sapiens, UniProt P30291); assay: Radiometric protein kinase assay (33 PanQinase), WEE1; details: for IC50: dose-response 0-100 μM, n=3, read-out: IC50: Concentration of drug needed in order to inhibit kinase activity by 50%, WEE1; for inhibition at 57 µM: read-out: inhibition of WEE1 activity
T1 construct: made in house
Experimental: (§1) A radiometric protein kinase assay (33 PanQinase®Activity Assay) was used for measuring the kinase activity of 250 protein kinases. All kinase assays were performed in 96-well flashPlates™ from Perkin Elmer (Boston, Mass., USA) in a 50 μl reaction volume. The reaction cocktail was pipetted in 4 steps in the following order: • 10 μl of non-radioactive ATP solution (in H2O) • 25 μl of assay buffer/[γ-33P]-ATP mixture • 5 μl of test sample in 10% DMSO • 10 μl of enzyme/substrate mixture
(§2) The assay for all enzymes contained 60 mM HEPES-NaOH, pH 7.5, 3 mM MgCl2, 3 mM MnCl2, 3 μM Na-orthovanadate, 1.2 mM DTT, 50 μg/ml PEG20000, 1 μM ATP/[γ-33P]-ATP (approx. […] per well), protein kinase, and substrate. All PKC assays (except the PKC-mu and the PKC-nu assay) additionally contained 1 mM CaCl2, 4 mM EDTA, 5 μg/ml Phosphatidylserine and 1 μg/ml 1,2-Dioleyl-glycerol. The MYLK2, CAMK1D, CAMK2A, CAMK2B, CAMK2D, CAMK4, CAMKK2, DAPK2 and EEF2K assays additionally contained 1 μg/ml Calmodulin and 0.5 mM CaCl2. The PRKG1 and PRKG2 assays additionally contained 1 μM cGMP.
(§3) The protein kinases were expressed either in Sf9 insect cells or in E. coli as recombinant GST-fusion proteins or as His-tagged proteins. All kinases were produced from human cDNAs. Kinases were purified by affinity chromatography using either GSH-agarose (Sigma) or Ni-NTH-agarose (Qiagen). The purity of the protein kinases was examined by SDS-PAGE/coomassie staining. The identity of the protein kinases was checked by mass spectroscopy.
(§4) The reaction cocktails were incubated at 30° C. for 60 minutes. The reaction was stopped with 50 μl of 2% (v/v) H3PO4, plates were aspirated and washed two times with 200 μl 0.9% (w/v) NaCl. All assays were performed with a BeckmanCoulter Biomek 2000/SL robotic system.
(§5) Incorporation of ^33Pi (counting of “cpm”) was determined with a microplate scintillation counter (Microbeta, Wallac).
(§6) For each kinase, the median value of the cpm of three wells with complete reaction cocktails, but without kinase, was defined as “low control” […]. This value reflects unspecific binding of radioactivity to the plate in the absence of protein kinase but in the presence of the substrate. Additionally, for each kinase the median value of the cpm of three other wells with the complete reaction cocktail, but without any compound, was taken as the “high control”, i.e. full activity in the absence of any inhibitor […]. The difference between high and low control of was taken as 100% activity for each kinase. As part of the data evaluation the low control value of each kinase was subtracted from the high control value as well as from their corresponding “compound values”. The residual activity (in %) for each compound well was calculated by using the following formula: Res. Activity (%)=100×[(cpm of compound−low control)/(high control−low control)]

DYRK1A kinase = biological target: T2, DYRK1A kinase (Homo sapiens, UniProt Q13627); assay: Radiometric protein kinase assay (33 PanQinase), DYRK-1A; details: for IC50: dose-response 0-100 μM, n=3, read-out: IC50: Concentration of drug needed in order to inhibit kinase activity by 50%, DYRK-1A; for inhibition at 57 µM: read-out: inhibition of DYRK-1A activity
T2 construct: made in house
Experimental: as §1, with “The kinase inhibition profile of DLT11 at 20 μM was determined using 250 protein kinases. […] A radiometric” for “A radiometric”
as §1, with “The kinase inhibition profile of DLT95-Cl at 20 μM was determined using 255 protein kinases. […] A radiometric” for “A radiometric”
as §2, §3, §4, §5, §6

Aurora B kinase = biological target: T3, Aurora B kinase (Homo sapiens, UniProt Q96GD4); assay: Radiometric protein kinase assay (33 PanQinase), Aurora B; details: for IC50: dose-response 0-100 μM, n=3, read-out: IC50: Concentration of drug needed in order to inhibit kinase activity by 50%, AurB; for inhibition at 57 µM: read-out: inhibition of Aurora B activity
T3 construct: made in house
Experimental: (§7) Note that at a concentration of 20 μM of the DLT compounds, the activity of the three Aurora kinases is reduced by approximately 40-50%, whereas at concentrations of 50 μM, i.e. the concentration used in the anti-proliferation assays of example 2B, the activity of said kinases is reduced by 60-75%.
as §1, with “The kinase inhibition profile of DLT95-Cl at 20 μM was determined using 255 protein kinases. Residual activity values were measured by testing each compound at one concentration in duplicate in each kinase assay. A radiometric” for “A radiometric”
as §2, §3, §4, §5, §6

Aurora C kinase = biological target: T4, Aurora C kinase (Homo sapiens, UniProt Q9UQB9); assay: Radiometric protein kinase assay (33 PanQinase), Aurora C; details: for IC50: dose-response 0-100 μM, n=3, read-out: IC50: Concentration of drug needed in order to inhibit kinase activity by 50%, AurC; for inhibition at 57 µM: read-out: inhibition of Aurora C activity
T4 construct: made in house
T4 sequence (Q9UQB9 1-309): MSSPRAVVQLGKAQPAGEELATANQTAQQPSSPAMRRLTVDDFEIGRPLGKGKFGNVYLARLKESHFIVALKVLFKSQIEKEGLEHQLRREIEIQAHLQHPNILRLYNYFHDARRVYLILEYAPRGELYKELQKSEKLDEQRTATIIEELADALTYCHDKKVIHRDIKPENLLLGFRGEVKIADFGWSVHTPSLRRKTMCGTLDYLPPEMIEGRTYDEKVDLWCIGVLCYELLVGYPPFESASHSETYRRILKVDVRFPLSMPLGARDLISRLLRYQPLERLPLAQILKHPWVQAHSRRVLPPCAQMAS
Experimental: as §7
as §1, with “The kinase inhibition profile of DLT95-Cl at 20 μM was determined using 255 protein kinases. Residual activity values were measured by testing each compound at one concentration in duplicate in each kinase assay. A radiometric” for “A radiometric”
as §2, §3, §4, §5, §6

T1 sequence (P30291 whole entry): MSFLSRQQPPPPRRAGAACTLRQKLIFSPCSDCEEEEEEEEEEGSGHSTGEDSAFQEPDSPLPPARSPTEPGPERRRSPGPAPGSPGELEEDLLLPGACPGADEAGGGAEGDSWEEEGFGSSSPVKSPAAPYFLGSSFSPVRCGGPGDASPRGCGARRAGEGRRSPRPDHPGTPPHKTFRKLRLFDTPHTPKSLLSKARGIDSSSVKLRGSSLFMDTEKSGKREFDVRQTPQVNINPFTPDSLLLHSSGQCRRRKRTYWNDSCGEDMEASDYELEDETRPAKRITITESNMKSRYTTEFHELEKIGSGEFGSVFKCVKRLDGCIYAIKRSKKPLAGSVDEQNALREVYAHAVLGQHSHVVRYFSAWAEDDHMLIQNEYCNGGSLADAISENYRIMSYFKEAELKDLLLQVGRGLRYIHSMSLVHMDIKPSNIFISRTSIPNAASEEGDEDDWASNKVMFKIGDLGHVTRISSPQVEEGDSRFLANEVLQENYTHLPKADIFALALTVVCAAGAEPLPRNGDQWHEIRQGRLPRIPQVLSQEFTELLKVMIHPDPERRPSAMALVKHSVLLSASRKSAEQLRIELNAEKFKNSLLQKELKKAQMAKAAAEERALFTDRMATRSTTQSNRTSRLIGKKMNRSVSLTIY
T3 sequence (Q96GD4 whole entry): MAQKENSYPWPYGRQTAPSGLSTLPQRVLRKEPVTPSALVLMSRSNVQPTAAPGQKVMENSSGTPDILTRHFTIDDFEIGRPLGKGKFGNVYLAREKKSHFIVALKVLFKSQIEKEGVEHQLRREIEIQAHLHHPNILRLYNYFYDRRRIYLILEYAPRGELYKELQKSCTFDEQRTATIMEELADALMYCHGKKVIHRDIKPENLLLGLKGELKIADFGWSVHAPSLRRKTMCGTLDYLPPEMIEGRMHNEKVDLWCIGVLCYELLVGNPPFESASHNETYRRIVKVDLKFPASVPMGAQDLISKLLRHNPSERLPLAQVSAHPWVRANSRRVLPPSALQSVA

Row | SMILES | IC50 (WEE1 kinase) | inhibition at 57 µM (WEE1 kinase) | IC50 (DYRK1A kinase) | inhibition at 57 µM (DYRK1A kinase) | IC50 (Aurora B kinase) | inhibition at 57 µM (Aurora B kinase) | IC50 (Aurora C kinase) | inhibition at 57 µM (Aurora C kinase) | inhibition of Dyrk1A (DYRK1A kinase; 20 μM (FIG. 3))
1 | O=C(OCc1cc(COC(=O)c2ccc(O)c(Cl)c2)cc(COC(=O)c2ccc(O)c(Cl)c2)c1)c1ccc(O)c(Cl)c1 [DLT95-Cl, [3,5-bis[(4-hydroxy-3-chloro-benzoyl)oxymethyl]phenyl]methyl 4-hydroxy-3-chloro-benzoate] | 3.74 µM | ≥ 50% | 3.2 µM | ≥ 50% | 0.9 µM | ≥ 50% | 1.8 µM | ≥ 50% | 
2 | COc1cc(C(=O)O)ccc1O [vanillic acid, reference compound] | > 100 µM |  | > 100 µM |  | > 100 µM |  | > 100 µM |  | 
3 | COc1cc(C(=O)OCCCCCCOC(=O)c2ccc(O)c(OC)c2)ccc1O [DLT11, Hexane-1,6-diyl bis-(4-hydroxy-3-methoxybenzoate)] |  |  |  |  |  |  |  |  | 5%
4 | COc1cc(C(=O)OCc2cc(COC(=O)c3ccc(O)c(OC)c3)cc(COC(=O)c3ccc(O)c(OC)c3)c2)ccc1O [DLT95, [3,5-bis[(4-hydroxy-3-methoxy-benzoyl)oxymethyl]phenyl]methyl 4-hydroxy-3-methoxy-benzoate] | > 100 µM |  | > 100 µM |  | 3.4 µM |  | 3.3 µM |  | 
5 | O=C(OCc1cc(COC(=O)c2ccc(O)c(F)c2)cc(COC(=O)c2ccc(O)c(F)c2)c1)c1ccc(O)c(F)c1 [DLT95-F, [3,5-bis[(4-hydroxy-3-fluoro-benzoyl)oxymethyl]phenyl]methyl 4-hydroxy-3-fluoro-benzoate] | 7.12 µM | ≥ 50% | 7.1 µM | ≥ 50% | 2.4 µM | ≥ 50% | 4.7 µM | ≥ 50% | 
